The values below are quoted from earlier work in US20110189319A1, “Lifeforce liquid supplement” (priority 2010, published 2011).

Like-named read-outs stand apart in the source and are kept apart here.

The test system of data set [1] is patients affected by chronic cerebrovasculopathy. The following applies: 1000 mg/day i.m.
For data set [2], the system named is patients with Alzheimer disease. The following applies: 1,000 mg/day.
For data set [3] the following is noted: in vivo.
Data set [4] concerns AMD patients. The note with it: 10 mg daily, 12 months.
Data set [5] has as its system lymphocytes. The note with it: relative to beta-carotene.
Data set [6] deals with permanent middle cerebral artery occlusion in rats. The following applies: rats, 2,3,5-triphenyltetrazolium-chloride staining.
For data set [7] the following is noted: in vivo. This is another data set of the same source.
Assay in data set [8]: not given
The source holds these as a separate data set.

For data set [9], the system named is healthy female volunteers. The note with it: 40 mg three times a day, two days.
For data set [10], the system named is rat brain synaptosomes.
For data set [11], the target named is phosphodiesterase (PDE) type-1.
The subject of data set [12] is patients suffering from mild to moderate dementia. The note with it: 10 or 20 mg three times a day, sixteen weeks.
In data set [13] the test system is elderly patients with chronic cerebral dysfunction.
The test system of data set [14] is patients suffering from multiple cerebral infarcts.
The conditions of data set [15]: oral, healthy male volunteers, PET.
For data set [16], the system named is herpes virus.
Data set [17] concerns exercise capacity. The note with it: 750 mg soybean-derived daily for 10 d.
The test system of data set [18] is young adults. The note with it: 300 mg each day for a month, neuroticism scores above the median.
Data set [19] has as its system healthy elderly volunteers. The note with it: 100 mg×3/day p.o., 12 weeks.
Data set [20] deals with elderly with age-associated memory impairment. The note with it: in vivo.
For data set [21], the system named is INTERMAP participants.
Data set [22] concerns women. The note with it: highest versus least dietary intake.
The test system of data set [23] is female health professionals. The following applies: about 262.4 versus 4.4 milligrams per day.
[24] abbreviates: 100 microM, ascorbate/Fe2+ oxidative stress.
The mark [25] stands for this setting: 2,038 subjects without hypertension.
[26] abbreviates: 2,238 subjects not using drugs, supplements or special diet.
The mark [27] stands for this setting: high (0.67% kcal) versus lower intake, all participants.

Consider `C[N+](C)(C)CCOP(=O)(O)OP(=O)([O-])OC[C@H]1O[C@@H](n2ccc(N)nc2=O)[C@H](O)[C@@H]1O` [Citicoline, cytidine 5′-diphosphocholine], for which the side-effects result in [1] was “No side-effects were detected”. The bioavailability result (in vivo) is reported as “greater than 90%”. Besides, the excreted in feces entry (oral doses, healthy adults) is on record as “less than one”. Besides, for the setting “oral, biphasic”, the “first plasma peak after ingestion” value is listed as “one” and the “second larger plasma peak post-dosing” value was 24 h. Also, the tolerability entry in data set [2] is recorded as “well tolerated”.

Consider `CC1=C[C@H](O)CC(C)(C)[C@H]1/C=C/C(C)=C/C=C/C(C)=C/C=C/C=C(C)/C=C/C=C(C)/C=C/C1=C(C)C[C@@H](O)CC1(C)C` [Lutein], for which the bioavailability entry in [3] is listed as “approximately 70%”. Further, in data set [4], the “increase in macular pigment density relative to placebo” value is listed as 50% and the “visual function (glare recovery, contrast sensitivity, visual acuity) vs. placebo” value is recorded as “significant improvements”.

`CC(C)=CCC/C(C)=C/C=C/C(C)=C/C=C/C(C)=C/C=C/C=C(C)/C=C/C=C(C)/C=C/C=C(\C)CCC=C(C)C` [Lycopene]: in data set [5], the “protection of lymphocytes from membrane damage and cell death” value is reported as “twice as efficiently as beta-carotene”.

`C[C@]12N[C@H](Cc3ccccc31)c1ccccc12` [MK-801]: in [6], the “decrease of infarct volume compared to control” value is 18%.

Consider `CC(C)=CCC[C@](C)(O[C@@H]1O[C@H](CO[C@@H]2O[C@H](CO)[C@@H](O)[C@H](O)[C@H]2O)[C@@H](O)[C@H](O)[C@H]1O)[C@H]1CC[C@]2(C)[C@@H]1[C@H](O)C[C@@H]1[C@@]3(C)CC[C@H](O[C@@H]4O[C@H](CO)[C@@H](O)[C@H](O)[C@H]4O[C@@H]4O[C@H](CO)[C@@H](O)[C@H](O)[C@H]4O)C(C)(C)[C@@H]3CC[C@]12C` [Rb1, Ginsenoside Rb1], for which the oral bioavailability entry in data set [7] (po) is “low oral bioavailability”.

`CC(C)=CCC[C@](C)(O[C@@H]1O[C@H](CO)[C@@H](O)[C@H](O)[C@H]1O)[C@H]1CC[C@]2(C)[C@@H]1[C@H](O)C[C@@H]1[C@@]3(C)CC[C@H](O)C(C)(C)[C@@H]3[C@@H](O[C@@H]3O[C@H](CO)[C@@H](O)[C@H](O)[C@H]3O)C[C@]12C` [Rg1, ginsenoside Rg1]: in [7], the “elimination from the blood” value is reported as “rapidly eliminated from the blood”.

With `CCOC(=O)C1=C[C@]2(CC)CCCN3CCc4c(n1c1ccccc41)[C@@H]32` [Vinpocetine], the “absorption of an ingested dose” value in data set [8] (given with food) is recorded as “up to 60%”. Also, in data set [8] (in vivo), the “elimination half-life following ingestion” value is “one to two”; the “levels peak in the bloodstream after ingestion” value was “an hour and a half”; the “time to peak plasma levels after ingestion” value is “one to one and a half”. In [8] (on an empty stomach), the “absorption of an ingested dose” value is given as ≥ 7%. In addition, the “time in which most of a dose is excreted as apovincaminic acid” value in [8] (urine) was ≤ 24 h. In addition, in [9], the memory versus placebo entry is on record as “significantly improved”. Also, in data set [10] (setting [24]), the “decrease of DCFH2-DA fluorescence” value is “about 50%” and the “decrease of DHR 123 fluorescence” value is reported as ~83%. The “ascorbate/Fe2+ stimulated consumption of oxygen and TBARS accumulation” value in data set [10] (concentration-dependent) is given as “inhibited”. Moreover, in [11], the IC50 is ~10 µM. In addition, the “decrease of infarct volume compared to control” value in data set [6] is 42%. In addition, in data set [12], the “cognitive improvement versus placebo” value is recorded as “Statistically significant cognitive improvements” and the side effects entry is recorded as “no clinically relevant side effects”. The “cognitive evaluations versus placebo” value in [13] (10 mg tid thirty days, then 5 mg tid sixty days) is listed as “scored consistently better in all cognitive evaluations”. Besides, the side effects result in data set [13] (ninety-day trial) is on record as “No serious side effects”. Besides, the side effects entry in [14] (in vivo) is recorded as “No serious side effect”. For the same compound, the “digit span backward test” value in [14] (three months) was “did not show any significant worsening”. Further, the “flow velocities after breath holding, acute phase, versus placebo” value in data set [14] (transcranial Doppler) is recorded as “significantly lower”.

With `CCOC(=O)C1=C[C@]2(CC)CCCN3CCc4c(n1c1ccccc41)[C@@H]32` [[11C] vinpocetine], the “average maximum brain uptake” value in [15] was 0.7 % of the administered total dose.

`COc1ccc2c(=O)oc3c(OC)cc(CCN(C)C)c4c(=O)oc1c2c34` [taspine]: the “activity against herpes virus” value in data set [16] is on record as “active”.

In the case of Phosphatidylserine, the exercise capacity entry in data set [17] is on record as “improved exercise capacity”. The “feelings of stress and mood” value in data set [18] is “feeling less stressed and having a better mood”. For the same compound, the “outcome measures of age related cognitive decline” value in [19] is “significant drug over time effect”. Also, in data set [20], the “safe dosage for older persons” value is recorded as ≤ 200 mg three times daily.

In the case of omega-3 fatty acid, in data set [21] (setting [25]), the average diastolic reduction is 0.92 mm Hg and the average systolic reduction is reported as 0.91 mm Hg. Also, in [21] (setting [26]), the “reduction in diastolic blood pressure” value was 0.98 mm Hg and the “reduction in systolic blood pressure” value is on record as 1.01 mm Hg. Further, in data set [21] (setting [27]), the “lower average diastolic blood pressure” value was 0.57 mm Hg and the “lower average systolic blood pressure” value was 0.55 mm Hg. Moreover, the “lower risk of dry eye syndrome” value in data set [22] is on record as 17%.

For the compound vitamin E, in data set [23], the “less likely to develop cataracts” value is on record as 14%.
